In patent US20070059720A9 (priority 2004, published 2007):
Read-outs that look alike come from different tables or passages of the source.

Legend:
TR breast cancer = conditions: second-line therapy; cited from earlier work
[1] = test system: MCF-7 vector control cells; test: Anchorage-independent soft agar colony formation, MCF-7 vector control cells; format: cell-based, human; conditions: vector control cells; 100 nM OHT plus 10 nM ICI or 20 nM PD98065
Method: (§1) Cells were starved for 2 days in PRF MEM (InVitrogen) supplemented with 5% fetal bovine serum (FBS, Summit Biotechnology, Fort Collins, Colo.), 6 ng/ml insulin, 200 units/ml penicillin, and 200 μg/ml streptomycin. Soft agar assays were performed in sixwell plates. Into each well, 1.5 ml of prewarmed (50° C.) 0.7% SeaPlaque agarose (FMC, Rockland, Me.) was added and dissolved in PRF MEM supplemented with 5% charcoal stripped FBS (Summit, Fort Collins, Colo.) to serve as the bottom layer, and allowed to solidify at 4° C. until to use. 0.5×10^4 cells as a single cell suspension were suspended in prewarmed (37° C.) of the same media, 4 ml of 0.5% SeaPlaque agarose was then added, and this suspension then plated as the top layer by adding it dropwise to the solidified bottom layer plates. Plates were cooled for 2 hours, and then transferred to a 37° C. humidified incubator. Two days after plating, media containing control vehicle, 1 nM estradiol, 100 nM 4-OH-Tam, 100 nM OHT plus 10 nM ICI, or 100 nM OHT plus 20 nM […] was added to the top cell layer, and the appropriate media was replaced every two days. After 14 days, the colonies were fixed, and the colony number of colonies >50 cells from quadruplicate assays were then counted. The data shown is the mean colony number of four plates, and is representative of two independent experiments.
(§2) In pancreatic cells, ectopic expression of MKP3 is reported to result in a suppression of cell growth (Fuqua et al., 2003). Thus, the growth characteristics of the MCF-7 stable MKP3 transfectants under different hormonal conditions were investigated using anchorageindependent soft agar assay (FIG. 4B).

MCF-7-MKP3 cells = test: Anchorage-independent soft agar colony formation, MKP3-overexpressing MCF-7 transfectants; format: cell-based, human; conditions: MKP3-transfected cells; 100 nM OHT plus 10 nM ICI or 20 nM
Method: MCF-7 cells were originally obtained from Dr. Benita Katzenellebogen, but have been maintained in the inventors' laboratory for over 10 years (Fuqua et al., 2000). MCF-7 cells were maintained in Minimal Essential Medium (MEM, InVitrogen) supplemented with 5% fetal bovine serum (Summit Biotechnology, Fort Collins, Colo.), 200 U/ml penicillin, and 200 μg/ml streptomycin. Cells were incubated at 37° C. in 5% CO2. To generate MCF-7 cells stably overexpressing MKP3, 5 μg of the plasmid pcDNA3-MKP3-V5 (Furukawa et al., 2003) or empty vector (pcDNA3-His-V5, InVitrogen), were transfected into the cells using Fugene 6 reagent Roche Clinical Laboratories, Indianapolis, Ind.) in 100 mm tissue culture dishes following the manufacturer's protocol. Stable clones overexpressing MKP3 were selected as described (Fuqua et al., 2000), and positive clones were identified using immunoblot analysis with an anti-V5 antibody (1:5000 dilution)
as §1, §2

ERK 1,2 MAPK = test: Immunoblot of phospho-MAPK in MCF-7 transfectants; format: cell-based, human
Method: (§3) Cells grown in 100 mm dishes were starved in phenol red-free (PRF), serum-free MEM (Specialty Media, Phillipsburg, N.J.) for 48 hours, and were then treated for 2 hours with vehicle (ethanol), estrogen (100 nM, 20), or OHT (100 nM). After treatment, cells were rinsed twice with ice-cold phosphate-buffered saline (PBS) and were then lysed immediately with 200 μl of cell lysis buffer (20 mM Tris HCl, pH 7.4, 150 mM NaCl, 1 mM B-glycerophosphate, 1 mM sodium orthovanadate, and 10% glycerol plus 1:100 proteinase inhibitor cocktail III) (Calbiochem, LaJolla, Calif.) per 100 mm tissue culture. The cell lysates were cleared by centrifugation at 16,100×g for 10 minutes at 4° C. Protein concentration was determined with the BCA Protein Assay kit (Pierce, Rockfold, Ill.) according to the manufacturer's directions. Equal amount of cell extracts were resolved under denaturing conditions by electrophoresis in 8-10% polyacrylamide gels containing sodium dodecyl sulfate (SDS-PAGE), and transferred to nitrocellulose membranes by electroblotting (Schleicher & Schuell, Keene, NH). After blocking of the transferred nitrocellulose membrane with TBST (20 mM Tris pH 7.6, 150 mM NaCl, 0.1% Tween-20) supplemented with 5% non-fat milk for 1 hour at room temperature, the membrane was incubated with primary antibodies either for 1 hour at room temperature (anti-ERα, 1:100 dilution; anti-AIB1, 1:100 dilution; anti-ERK2, 1:500 dilution; anti-Cyclin D1,1:500 dilution; anti-PR, C-19, 1:200 dilution; anti-p190, 1:1000 dilution; anti-V5, 1:5000 dilution), or overnight at 4° C. (anti-phospho MAPK, 1:1000 dilution; anti-phosphor-Ser118-ERα; 1:1000 dilution; MAPK p42/44, 1:1000 dilution), incubated with secondary antibodies for 1 hour at room temperature and then developed with Enhanced Chemiluminescence Reagents (Amersham Pharmacia Biotech, Piscataway, N.J.).
MAPK activity is tightly regulated by phosphorylation and dephosphorylation. MKP3 participates in a bidirectional regulatory loop with ERK2 MAPK, whereby ERK2 substrate binding is associated with catalytic activation of MKP3, and activated MKP3 negatively regulates pERK2 (Camps et al., 1998). […] Immunoblot analysis with anti-V5 was used to detect ectopic MKP3 expression in the two MKP3 transfectants (FIG. 5A, top panel). FIGS. 5B and 5C provide quantitation of results in FIG. 5A.

cyclin D1 (CCND1) = test: Immunoblot of CCND1 in MCF-7 transfectants; format: cell-based, human; conditions: MKP3 overexpressing cells
Method: (§4) Cells grown in 100 mm dishes were starved in phenol red-free (PRF), serum-free MEM (Specialty Media, Phillipsburg, N.J.) for 48 hours, and were then treated for 2 hours with vehicle (ethanol), estrogen (100 nM, 20), or OHT (100 nM). After treatment, cells were rinsed twice with ice-cold phosphate-buffered saline (PBS) and were then lysed immediately with 200 μl of cell lysis buffer (20 mM Tris HCl, pH 7.4, 150 mM NaCl, 1 mM B-glycerophosphate, 1 mM sodium orthovanadate, and 10% glycerol plus 1:100 proteinase inhibitor cocktail III) (Calbiochem, LaJolla, Calif.) per 100 mm tissue culture. The cell lysates were cleared by centrifugation at 16,100×g for 10 minutes at 4° C. Protein concentration was determined with the BCA Protein Assay kit (Pierce, Rockfold, Ill.) according to the manufacturer's directions. Equal amount of cell extracts were resolved under denaturing conditions by electrophoresis in 8-10% polyacrylamide gels containing sodium dodecyl sulfate (SDS-PAGE), and transferred to nitrocellulose membranes by electroblotting (Schleicher & Schuell, Keene, NH). […]
(§5) As expected with two hours of estrogen treatment, no induction of the two PR isoforms were detected in either the control vector (Con 1 and 2), or in the MKP3-transfected cells (FIG. 11A). […]

[2] = test system: progesterone receptor (PR) A and B forms; test: Immunoblot of PR-A and PR-B in MCF-7 transfectants; format: cell-based, human; conditions: MKP3 overexpressing cells
Method: as §3, §5

ERα = test: Immunoblot of phospho-S118 ERα and total ERα in MCF-7 transfectants; format: cell-based, human; conditions: control and Tam-treated MKP3.2 cells
Method: as §3

JNK = test: Immunoblot of phospho-JNK in MCF-7 transfectants; format: cell-based, human; conditions: vector control cells treated with the inhibitor
Method: as §4

breast cancer = conditions: cited from earlier work

Row | SMILES | share of TR breast cancer patients who respond (TR breast cancer) | effect on Tam-induced colony formation [1] | effect on Tam-induced colony formation (MCF-7-MKP3 cells) | effect on the increase in pMAPK (ERK 1,2 MAPK; control and Tam-treated MKP3.2 cells) | effect on activation of MAPK (ERK 1,2 MAPK; vector control cells, all treatment conditions) | effect on tamoxifen induction of CCND1 (cyclin D1 (CCND1)) | effect on PR-B levels in Tam-treated cells [2] | effect on the increase in pS118 ERα (ERα) | pJNK level (JNK) | benefit compared to tamoxifen (breast cancer; ER+/PR+ group) | benefit compared to tamoxifen (breast cancer; ER+/PR− subgroup)
1 | C[C@]12CC[C@@H]3c4ccc(O)cc4C[C@@H](CCCCCCCCC[S+]([O-])CCCC(F)(F)C(F)(F)F)[C@H]3[C@@H]1CC[C@@H]2O (stereo partly shown) [ICI182,780] | About two-thirds | completely blocked | completely blocked | – | – | – | – | – | – | – | –
2 | COc1cccc(-c2cc(=O)c3ccccc3o2)c1N [PD98059] | – | completely blocked | completely blocked | effectively inhibited | blocked activation of MAPK | blocked | restored | effectively inhibited | elevated | – | –
3 | CC(C)(C#N)c1cc(Cn2cncn2)cc(C(C)(C)C#N)c1 [anastrazole] | – | – | – | – | – | – | – | – | – | modest advantage | major benefit
